According to patent publication US6479435B1, “Diaryl ethers and processes for their preparation and herbicidal and desiccant compositions containing them” (ISK Americas Incorporated, priority 1997, dated 2002):

Key:
Assay type in all cases: in vivo
[1] = tested on: field corn (Zea mays L., var. Dekalb 535, CORN); assay: Pre-emerge greenhouse test, crop damage rating; settings: 14 days after application, rating scale 0-100
In short: (§1)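 Seeds sown in sandy loam one day before track-sprayer application of acetone solutions at 125–1000 g ai/ha (187 l/ha), then surface-watered to incorporate and bottom-watered. Injury scored visually at 14 days on a 0–100 scale (0 no damage, 100 complete death).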

[2] = tested on: upland rice (Oryza sp., var.Tebonnet, RICE); assay: Pre-emerge greenhouse test, crop damage rating; settings: 14 days after application, rating scale 0-100
In short: as §1

[3] = tested on: field corn (Zea mays L., var. Dekalb 535, CORN); assay: Post-emerge greenhouse test, crop damage rating; settings: 14 days after application
In short: (§2)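 Plants at the 2-3 leaf stage, sown 8-21 days earlier, were track-sprayed post-emergence with compound in acetone plus 0.25% v/v non-ionic surfactant at 63-1000 g ai/ha (187 l/ha). Damage was rated at 14 days on a 0-100 scale (0 none, 100 all plants dead), for both crop injury and weed control.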

[4] = tested on: upland rice (Oryza sp., var.Tebonnet, RICE); assay: Post-emerge greenhouse test, crop damage rating; settings: 14 days after application
In short: as §2

[5] = tested on: redroot pigweed (Amaranthus retroflexus, AMARE); assay: Pre-emerge greenhouse herbicide test, phytotoxicity rating; settings: 14 days after application, rating scale 0-100
In short: as §1

[6] = tested on: lambsquarters (Chenopodium album, CHEAL); assay: as above; settings: 14 days after application, rating scale 0-100
In short: as §1

[7] = tested on: velvetleaf (Abutilon theophrasti, ABUTH); assay: as above; settings: 14 days after application, rating scale 0-100
In short: as §1

[8] = tested on: green foxtail (Setaria viridis, SETVI); assay: as above; settings: 14 days after application, rating scale 0-100
In short: as §1

[9] = tested on: sicklepod (Cassia obtusifolia, CASOB); assay: as above; settings: 14 days after application, rating scale 0-100
In short: as §1

[10] = tested on: large crabgrass (Digitaria sanguinalis, DIGSA); assay: as above; settings: 14 days after application, rating scale 0-100
In short: as §1

[11] = tested on: common ragweed (Ambrosia artemisiifolia L., AMBEL); assay: as above; settings: 14 days after application, rating scale 0-100
In short: as §1

[12] = tested on: Johnsongrass (Sorghum halepense, SORHA); assay: as above; settings: 14 days after application, rating scale 0-100
In short: as §1

[13] = tested on: barnyardgrass (Echinochloa crusgalli, ECHCG); assay: as above; settings: 14 days after application, rating scale 0-100
In short: as §1

[14] = tested on: ivyleaf morningglory (Ipomoea hederacea, IPOHE); assay: as above; settings: 14 days after application, rating scale 0-100
In short: as §1

[15] = tested on: common ragweed (Ambrosia artemisiifolia L., AMBEL); assay: Post-emerge greenhouse herbicide test, phytotoxicity rating; settings: 14 days after application
In short: as §2

[16] = tested on: soybean (Glycine max L., var. Pella 86, SOY); assay: Post-emerge greenhouse test, crop damage rating; settings: 14 days after application
In short: as §2

[17] = tested on: redroot pigweed (Amaranthus retroflexus, AMARE); assay: Post-emerge greenhouse herbicide test, phytotoxicity rating; settings: 14 days after application
In short: as §2

[18] = tested on: lambsquarters (Chenopodium album, CHEAL); assay: as above; settings: 14 days after application
In short: as §2

[19] = tested on: velvetleaf (Abutilon theophrasti, ABUTH); assay: as above; settings: 14 days after application
In short: as §2

[20] = tested on: green foxtail (Setaria viridis, SETVI); assay: as above; settings: 14 days after application
In short: as §2

[21] = tested on: large crabgrass (Digitaria sanguinalis, DIGSA); assay: as above; settings: 14 days after application
In short: as §2

[22] = tested on: Johnsongrass (Sorghum halepense, SORHA); assay: as above; settings: 14 days after application
In short: as §2

[23] = tested on: barnyardgrass (Echinochloa crusgalli, ECHCG); assay: as above; settings: 14 days after application
In short: as §2

[24] = tested on: ivyleaf morningglory (Ipomoea hederacea, IPOHE); assay: as above; settings: 14 days after application
In short: as §2

[25] = tested on: soybean (Glycine max L., var. Pella 86, SOY); assay: Pre-emerge greenhouse test, crop damage rating; settings: 14 days after application, rating scale 0-100
In short: as §1

N#Cc1ccccc1Oc1cc(-n2c(=O)n3n(c2=S)CCCC3)c(F)cc1Cl [Compound 8-7]
20: crop damage rating RICE ([2]; 125 g ai/ha) | CORN crop damage rating (0-100) ([3]; 63 g al/ha) | phytotoxicity rating SORHA ([12]; 125 g ai/ha) | SOY crop damage rating (0-100) ([16]; 63 g al/ha) | ECHCG phytotoxicity rating (0-100) ([23]; 500 g al/ha) | crop damage rating SOY ([25]; 500 g ai/ha)
60: phytotoxicity rating DIGSA ([10]; 125 g ai/ha) | AMBEL phytotoxicity rating (0-100) ([15]; 63 g al/ha)
90: phytotoxicity rating AMARE ([5]; 125 g ai/ha) | phytotoxicity rating SETVI ([8]; 500 g ai/ha) | CHEAL phytotoxicity rating (0-100) ([18]; 63 g al/ha)
70: phytotoxicity rating SETVI ([8]; 125 g ai/ha) | phytotoxicity rating CASOB ([9]; 125 g ai/ha) | phytotoxicity rating AMBEL ([11]; 125 g ai/ha) | phytotoxicity rating SORHA ([12]; 500 g ai/ha) | SOY crop damage rating (0-100) ([16]; 500 g al/ha) | SORHA phytotoxicity rating (0-100) ([22]; 500 g al/ha)
99: phytotoxicity rating DIGSA ([10]; 500 g ai/ha)
50: crop damage rating RICE ([2]; 500 g ai/ha) | RICE crop damage rating (0-100) ([4]; 500 g al/ha) | DIGSA phytotoxicity rating (0-100) ([21]; 500 g al/ha)
0: crop damage rating CORN ([1]; 125 g ai/ha) | CORN crop damage rating (0-100) ([3]; 500 g al/ha) | SETVI phytotoxicity rating (0-100) ([20]; 63 g al/ha) | SETVI phytotoxicity rating (0-100) ([20]; 500 g al/ha) | DIGSA phytotoxicity rating (0-100) ([21]; 63 g al/ha) | SORHA phytotoxicity rating (0-100) ([22]; 63 g al/ha) | ECHCG phytotoxicity rating (0-100) ([23]; 63 g al/ha) | crop damage rating SOY ([25]; 125 g ai/ha)
100: phytotoxicity rating AMARE ([5]; 500 g ai/ha) | phytotoxicity rating CHEAL ([6]; 125 g ai/ha) | phytotoxicity rating CHEAL ([6]; 500 g ai/ha) | phytotoxicity rating ABUTH ([7]; 125 g ai/ha) | phytotoxicity rating ABUTH ([7]; 500 g ai/ha) | phytotoxicity rating CASOB ([9]; 500 g ai/ha) | phytotoxicity rating AMBEL ([11]; 500 g ai/ha) | phytotoxicity rating ECHCG ([13]; 125 g ai/ha) | phytotoxicity rating ECHCG ([13]; 500 g ai/ha) | phytotoxicity rating IPOHE ([14]; 500 g ai/ha) | AMARE phytotoxicity rating (0-100) ([17]; 63 g al/ha) | AMARE phytotoxicity rating (0-100) ([17]; 500 g al/ha) | CHEAL phytotoxicity rating (0-100) ([18]; 500 g al/ha) | ABUTH phytotoxicity rating (0-100) ([19]; 63 g al/ha) | ABUTH phytotoxicity rating (0-100) ([19]; 500 g al/ha) | IPOHE phytotoxicity rating (0-100) ([24]; 63 g al/ha) | IPOHE phytotoxicity rating (0-100) ([24]; 500 g al/ha)
30: phytotoxicity rating IPOHE ([14]; 125 g ai/ha)
80: AMBEL phytotoxicity rating (0-100) ([15]; 500 g al/ha)
10: crop damage rating CORN ([1]; 500 g ai/ha) | RICE crop damage rating (0-100) ([4]; 63 g al/ha)

CCOC(=O)C(C)Oc1ccc(Oc2cc(-n3c(=O)n4n(c3=S)CCCC4)c(F)cc2Cl)cc1 (stereo not shown) [Compound 8-11]
99: SORHA phytotoxicity rating (0-100) ([22]; 500 g al/ha)
50: crop damage rating RICE ([2]; 125 g ai/ha) | RICE crop damage rating (0-100) ([4]; 500 g al/ha) | DIGSA phytotoxicity rating (0-100) ([21]; 63 g al/ha)
60: phytotoxicity rating CASOB ([9]; 500 g ai/ha) | phytotoxicity rating ECHCG ([13]; 125 g ai/ha) | SETVI phytotoxicity rating (0-100) ([20]; 500 g al/ha)
100: phytotoxicity rating AMARE ([5]; 125 g ai/ha) | phytotoxicity rating AMARE ([5]; 500 g ai/ha) | phytotoxicity rating CHEAL ([6]; 125 g ai/ha) | phytotoxicity rating CHEAL ([6]; 500 g ai/ha) | phytotoxicity rating ABUTH ([7]; 125 g ai/ha) | phytotoxicity rating ABUTH ([7]; 500 g ai/ha) | phytotoxicity rating SETVI ([8]; 500 g ai/ha) | phytotoxicity rating AMBEL ([11]; 500 g ai/ha) | phytotoxicity rating IPOHE ([14]; 500 g ai/ha) | AMBEL phytotoxicity rating (0-100) ([15]; 63 g al/ha) | AMBEL phytotoxicity rating (0-100) ([15]; 500 g al/ha) | SOY crop damage rating (0-100) ([16]; 500 g al/ha) | AMARE phytotoxicity rating (0-100) ([17]; 63 g al/ha) | AMARE phytotoxicity rating (0-100) ([17]; 500 g al/ha) | CHEAL phytotoxicity rating (0-100) ([18]; 63 g al/ha) | CHEAL phytotoxicity rating (0-100) ([18]; 500 g al/ha) | ABUTH phytotoxicity rating (0-100) ([19]; 63 g al/ha) | ABUTH phytotoxicity rating (0-100) ([19]; 500 g al/ha) | ECHCG phytotoxicity rating (0-100) ([23]; 63 g al/ha) | ECHCG phytotoxicity rating (0-100) ([23]; 500 g al/ha) | IPOHE phytotoxicity rating (0-100) ([24]; 63 g al/ha) | IPOHE phytotoxicity rating (0-100) ([24]; 500 g al/ha)
40: RICE crop damage rating (0-100) ([4]; 63 g al/ha) | phytotoxicity rating SORHA ([12]; 500 g ai/ha)
70: phytotoxicity rating CASOB ([9]; 125 g ai/ha) | phytotoxicity rating SORHA ([12]; 125 g ai/ha) | phytotoxicity rating ECHCG ([13]; 500 g ai/ha) | phytotoxicity rating IPOHE ([14]; 125 g ai/ha)
0: crop damage rating CORN ([1]; 125 g ai/ha) | crop damage rating CORN ([1]; 500 g ai/ha)
90: phytotoxicity rating SETVI ([8]; 125 g ai/ha) | SOY crop damage rating (0-100) ([16]; 63 g al/ha) | DIGSA phytotoxicity rating (0-100) ([21]; 500 g al/ha) | SORHA phytotoxicity rating (0-100) ([22]; 63 g al/ha)
30: SETVI phytotoxicity rating (0-100) ([20]; 63 g al/ha) | crop damage rating SOY ([25]; 500 g ai/ha)
95: CORN crop damage rating (0-100) ([3]; 500 g al/ha) | phytotoxicity rating AMBEL ([11]; 125 g ai/ha)
20: CORN crop damage rating (0-100) ([3]; 63 g al/ha) | phytotoxicity rating DIGSA ([10]; 125 g ai/ha) | crop damage rating SOY ([25]; 125 g ai/ha)
80: crop damage rating RICE ([2]; 500 g ai/ha) | phytotoxicity rating DIGSA ([10]; 500 g ai/ha)
